Reference: US8791132B2, “Compounds and methods for treatment of hypertension” (Medivation Technologies, Inc., priority 2011, dated 2014)

How the values were obtained:
[1] = biological target: T1, human recombinant adrenergic α2A receptor (Homo sapiens, UniProt P08913); assay: Radioligand binding, adrenergic α2A ([3H]MK-912); conditions: [3H]MK-912, repeat datapoints each shown; for inhibition at 0.1 µM: read-out: Percentage inhibition of ligand binding, Adrenergic α2A (0.1 μM), compound at 0.1 μM; for Percentage inhibition of ligand binding, Adrenergic α2A (0.1 μM): compound at 0.1 μM
T1 construct: expressed in transfected cells; host or cells: insect Sf9 cells
T1 sequence (P08913 1-465): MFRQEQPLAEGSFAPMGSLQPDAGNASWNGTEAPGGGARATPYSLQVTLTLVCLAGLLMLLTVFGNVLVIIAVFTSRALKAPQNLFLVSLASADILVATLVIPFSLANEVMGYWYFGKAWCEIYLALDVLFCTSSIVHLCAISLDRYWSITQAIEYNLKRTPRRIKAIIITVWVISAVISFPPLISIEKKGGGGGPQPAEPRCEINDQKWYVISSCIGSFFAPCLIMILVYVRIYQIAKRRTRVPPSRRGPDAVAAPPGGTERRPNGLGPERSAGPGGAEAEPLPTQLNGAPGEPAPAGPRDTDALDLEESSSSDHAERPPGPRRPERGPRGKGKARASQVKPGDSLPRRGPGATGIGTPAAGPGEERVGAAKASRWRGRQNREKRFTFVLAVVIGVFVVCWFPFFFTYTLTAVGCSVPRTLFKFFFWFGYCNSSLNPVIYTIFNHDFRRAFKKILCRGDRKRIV
How it was run: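 Displacement of 1 nM [3H]MK-912 from receptor produced in insect Sf9 cells was measured after 60 min at 25 °C. Readout: percent inhibition of specific binding.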

[2] = biological target: T2, rat adrenergic α1B receptor (Rattus norvegicus, UniProt P15823); assay: Radioligand binding, adrenergic α1B ([3H]Prazosin); conditions: [3H]Prazosin, repeat datapoints each shown; for inhibition at 0.1 µM: read-out: Percentage inhibition of ligand binding, Adrenergic α1B (0.1 μM), compound at 0.1 μM; for Percentage inhibition of ligand binding, Adrenergic α1B (0.1 μM): compound at 0.1 μM
T2 construct: rat adrenergic α1B receptor obtained from Wistar Rat liver; from tissue; host or cells: Wistar rat liver
T2 sequence (P15823 1-515): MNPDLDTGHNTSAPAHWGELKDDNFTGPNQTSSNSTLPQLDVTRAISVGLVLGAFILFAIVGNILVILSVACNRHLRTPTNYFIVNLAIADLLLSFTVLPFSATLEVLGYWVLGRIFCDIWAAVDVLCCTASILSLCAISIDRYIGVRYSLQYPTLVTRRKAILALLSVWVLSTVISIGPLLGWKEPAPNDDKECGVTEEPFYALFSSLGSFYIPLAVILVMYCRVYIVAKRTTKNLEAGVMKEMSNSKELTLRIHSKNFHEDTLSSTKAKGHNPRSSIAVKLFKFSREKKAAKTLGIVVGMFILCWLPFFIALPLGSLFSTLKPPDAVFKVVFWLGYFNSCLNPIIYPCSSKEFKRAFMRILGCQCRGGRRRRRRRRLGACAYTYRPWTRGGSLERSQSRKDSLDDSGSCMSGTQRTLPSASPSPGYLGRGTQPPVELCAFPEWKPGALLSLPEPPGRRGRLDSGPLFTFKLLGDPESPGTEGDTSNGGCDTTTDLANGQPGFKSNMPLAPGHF
How it was run: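 Rat α1B receptor from Wistar rat liver was incubated with 0.25 nM [3H]prazosin for 60 min at 25 °C in 50 mM Tris-HCl, pH 7.4, 0.5 mM EDTA. Non-specific binding was defined with 10 μM phentolamine. Bound radioligand was measured by filtration and counting, reported as percent inhibition of specific binding.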

[3] = biological target: T3, human recombinant adrenergic α2B receptor (Homo sapiens, UniProt P18089); assay: Radioligand binding, adrenergic α2B ([3H]Rauwolscine); conditions: [3H]Rauwolscine, repeat datapoints each shown; for inhibition at 0.03 µM: read-out: Percentage inhibition of ligand binding, Adrenergic α2B (0.03 μM), compound at 0.03 μM; for Percentage inhibition of ligand binding, Adrenergic α2B (0.03 μM): compound at 0.03 μM
T3 construct: expressed in transfected cells; host or cells: CHO-K1
T3 sequence (P18089 1-450): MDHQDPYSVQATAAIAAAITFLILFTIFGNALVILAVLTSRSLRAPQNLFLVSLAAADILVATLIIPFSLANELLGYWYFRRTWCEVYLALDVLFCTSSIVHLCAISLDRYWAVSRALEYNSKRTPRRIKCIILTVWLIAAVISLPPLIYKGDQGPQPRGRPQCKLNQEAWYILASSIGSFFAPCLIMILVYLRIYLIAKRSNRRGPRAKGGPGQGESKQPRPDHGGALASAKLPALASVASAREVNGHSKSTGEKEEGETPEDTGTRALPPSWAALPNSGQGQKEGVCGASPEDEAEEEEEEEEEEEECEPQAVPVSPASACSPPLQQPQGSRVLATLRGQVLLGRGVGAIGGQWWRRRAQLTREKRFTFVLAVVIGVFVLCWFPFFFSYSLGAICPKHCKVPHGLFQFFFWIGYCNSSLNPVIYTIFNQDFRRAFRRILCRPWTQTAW
How it was run: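 Receptor expressed in CHO-K1 cells, assayed in 50 mM Tris-HCl pH 7.4 with 12.5 mM MgCl2, 1 mM EDTA and 0.2% BSA. Compounds were incubated with 2.5 nM [3H]Rauwolscine for 60 min at 25° C; 10 μM Prazosin defined non-specific binding. Filter counting gave percent inhibition of specific binding.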

Row | inhibition at 0.1 µM [1] [%] | inhibition at 0.1 µM [2] [%] | inhibition at 0.03 µM [3] [%] | Percentage inhibition of ligand binding, Adrenergic α2A (0.1 μM) [1] [%] | Percentage inhibition of ligand binding, Adrenergic α1B (0.1 μM) [2] [%] | Percentage inhibition of ligand binding, Adrenergic α2B (0.03 μM) [3] [%] | SMILES
1 | 3 | 42 | 35 | – | – | – | Cc1cnc2c(c1)c1c(n2CC(O)c2ccc(C(N)=O)nc2)CCN(C)C1 (stereo not drawn) [II-111, 5-[2-(3,6-dimethyl-5,6,7,8-tetrahydro-1,6,9-triaza-fluoren-9-yl)-1-hydroxy-ethyl]-pyridine-2-carboxylic acid amide]
2 | – | 5 | 36 | 10 | – | – | Cc1ccc2c(c1)c1c(n2CC(C)(O)c2cccnc2)C(c2ccccc2)N(C)CC1 (stereo not drawn) [II-112a, 1-(2,6-dimethyl-1-phenyl-1,2,3,4-tetrahydro-β-carbolin-9-yl)-2-pyridin-3-yl-propan-2-ol]
3 | – | – | – | 3 | 10 | 31 | Cc1ccc2c(c1)c1c(n2CC(C)(O)c2cccnc2)C(c2ccccc2)N(C)CC1 (stereo not drawn) [II-112b, 1-(2,6-dimethyl-1-phenyl-1,2,3,4-tetrahydro-β-carbolin-9-yl)-2-pyridin-3-yl-propan-2-ol]
4 | 3 | 4 | 43 | – | – | – | Cc1cnc2c(c1)c1c(n2CC(O)c2ccc(C#N)cc2)CCNC1 (stereo not drawn) [II-116]
5 | -10 | -2 | 47 | – | – | – | Cc1ccc2c(n1)c1c(n2CC(O)c2ccncc2)CCN2CCCC12 (stereo not drawn) [II-122]
6 | 4 | -4 | 4 | – | – | – | CN1CCc2c(c3ncccc3n2CC(C)(O)c2cccnc2)C1 (stereo not drawn) [II-126]
7 | 34 | 61 | 97 | – | – | – | Cc1ccc2c(c1)c1c(n2CC(C)(O)c2ccc(C)nc2)CCN2CCCC12 (stereo not drawn) [II-128a, 1-(9-methyl-1,2,3,4,5,10c-hexahydro-3a,6-diaza-cyclopenta[c]fluoren-6-yl)-2-(6-methyl-pyridin-3-yl)-propan-2-ol]
8 | 12 | 2 | 1 | – | – | – | CN1CCc2c(c3ccncc3n2CC(C)(O)c2cccnc2)C1 (stereo not drawn) [II-129]
9 | – | – | – | 41 | 43 | 97 | CC(O)(Cn1c2c(c3cc(Cl)ccc31)C1CCCN1CC2)c1cccnc1 (stereo not drawn) [II-130, 1-(10-chloro-2,3,5,6-tetrahydro-1H-indolizino[7,8-b]indol-7(11cH)-yl)-2-(pyridin-3-yl)propan-2-ol]
10 | 85 | 90 | 103 | – | – | – | Cc1ccc2c(c1)c1c(n2CC(O)c2cccnc2)CCN2CCCC12 (stereo not drawn) [II-131, 2-(9-Methyl-1,2,3,4,5,10c-hexahydro-3a,6-diaza-cyclopenta[c]fluoren-6-yl)-1-pyridin-3-yl-ethanol]
11 | -3 | 48 | 34 | – | – | – | Cc1ccc2c(c1)c1c(n2CC(C)(O)c2cccnc2)CCN(C)CC1 (stereo not drawn) [II-135a, 1-(3,9-dimethyl-2,3,4,5-tetrahydroazepino[4,5-b]indol-6(1H)-yl)-2-(pyridin-3-yl)propan-2-ol]
12 | 9 | 57 | 77 | – | – | – | Cc1ccc2c(c1)c1c(n2CC(O)c2cnn[nH]2)CCN2CCCC12 (stereo not drawn) [II-138]
13 | 7 | 34 | 72 | – | – | – | Cc1ccc2c(c1)c1c(n2CC(O)c2ncc[nH]2)CCN2CCCC12 (stereo not drawn) [II-139, 1-(1H-imidazol-2-yl)-2-(10-methyl-2,3,5,6-tetrahydro-1H-indolizino[7,8-b]indol-7(11cH)-yl)ethanol]
14 | 3 | 53 | 72 | – | – | – | Cc1ccc2c(c1)c1c(n2CC(O)c2cnc[nH]2)CCN2CCCC12 (stereo not drawn) [II-140, 1-(1H-imidazol-5-yl)-2-(10-methyl-2,3,5,6-tetrahydro-1H-indolizino[7,8-b]indol-7(11cH)-yl)ethanol]
15 | -2 | 7 | 22 | – | – | – | Cc1ccc2c(c1)c1c(n2CC(C)(O)c2cncc(C(=O)O)c2)CCN(C)C1 (stereo not drawn) [II-141, 5-(1-(1,2,3,4-tetrahydro-2,8-dimethylpyrido[4,3-b]indol-5-yl)-2-hydroxypropan-2-yl)pyridine-3-carboxylic acid]
16 | -4 | 5 | 23 | – | – | – | Cc1ccc2c(c1)c1c(n2CC(C)(O)c2cnco2)CCN(C)C1 (stereo not drawn) [II-142, 1-(1,2,3,4-tetrahydro-2,8-dimethylpyrido[4,3-b]indol-5-yl)-2-(oxazol-5-yl)propan-2-ol]
17 | -3 | 13 | 22 | – | – | – | Cc1ccc2c(c1)c1c(n2CC(C)(O)c2ccc[nH]c2=O)CCN(C)C1 (stereo not drawn) [II-143, 3-(1-(1,2,3,4-tetrahydro-2,8-dimethylpyrido[4,3-b]indol-5-yl)-2-hydroxypropan-2-yl)pyridin-2(1H)-one]
18 | 27 | 21 | 93 | – | – | – | Cc1ccc2c(c1)c1c(n2CC(C)(O)c2cnccc2Cl)CCN(C)C1 (stereo not drawn) [II-148]
19 | 5 | 14 | 30 | – | – | – | Cc1ccc2c(c1CO)c1c(n2CC(O)c2ccncc2)CCN(C)C1 (stereo not drawn) [II-150, 2-(9-(hydroxymethyl)-2,8-dimethyl-3,4-dihydro-1H-pyrido[4,3-b]indol-5(2H)-yl)-1-(pyridin-4-yl)ethanol]
20 | 2 | 2 | 7 | – | – | – | Cc1ccc2c(c1CO)c1c(n2CC(C)(O)c2cccnc2)CCN(C)C1 (stereo not drawn) [II-153]
21 | 11 | 2 | 73 | – | – | – | Cc1cc2c3c(n(CC(C)(O)c4cccnc4)c2cc1CO)CCN(C)C3 (stereo not drawn) [II-154]
22 | 10 | 54 | 27 | – | – | – | Cc1ccc2c(c1)c1c(n2C(C)(C)C(O)c2ccccc2)CCN(C)C1 (stereo not drawn) [II-187]
23 | 19 | 29 | 73 | – | – | – | Cc1ccc2c(c1)c1c(n2CC(C)(F)c2cccnc2)CCN(C)C1 (stereo not drawn) [II-212, 5-(2-Fluoro-2-pyridin-3-yl-propyl)-2,8-dimethyl-2,3,4,5-tetrahydro-1H-pyrido[4,3-b]indole]
24 | 12 | -3 | 11 | – | – | – | CN1CCc2c(c3cc(CO)ccc3n2CC(C)(F)c2cccnc2)C1 (stereo not drawn) [II-213, [5-(2-fluoro-2-pyridin-3-yl-propyl)-2-methyl-2,3,4,5-tetrahydro-1H-pyrido[4,3-b]indol-8-yl]-methanol]
25 | 10 | -1 | 0 | – | – | – | Cc1ccc2c(c1)c1c(n2CC(CN)c2ccncc2)CCN(C)C1 (stereo not drawn) [II-221]
